Measured values published in patent publication US20240366553A1, “ASPARTIC ACID COPPER COMPLEX, AND USE THEREOF” (GUANGZHOU INSIGHTER BIOTECHNOLOGY CO., LTD., priority 2021, published 2024).
Read-outs that look alike come from different tables or passages of the source.

Key:
weaned piglets = details: for Average weight gain / Feed-to-meat ratio / Survival rate (%) / Total feed consumption / Total weight gain / Relative weight gain rate (%): weaned piglets, 30 days; for Total feed consumption / Total weight gain: 10 pigs; for Relative weight gain rate (%): control group = 100; for Improvement in the feed conversion of the experimental pigs compared with compound 4: used at the same doses (50 mg/kg)
Excerpt: (§1) Experimental animals: 900 one-day-old Lingnan yellow-feathered, fast-growing, and large-sized broilers; 150 weaned piglets;
(§2) Feeds: basal feed for chickens and basal feed for pigs that contain no antimicrobial drugs, copper sources and growth promoters;
(§3) Experimental samples: compound 1, compound 2, compound 3, compound 4, compound 5, compound 6, compound 7,
150 weaned piglets were grouped according to Table 2 (10 piglets/group). […] The piglets had free access to food. The weight gain and feed conversion of the experimental pigs in each experimental group were recorded within 30 days after […] weaning.

[1] = system: Lingnan yellow-feathered, fast-growing, and large-sized broilers; details: for Average feed consumption / Average weight gain / Feed-to-meat ratio / Survival rate (%) / Relative weight gain rate (%): broilers aged 1 to 21 days; for Relative weight gain rate (%): relative to control group; for Physical characteristics of the experimental chickens: experimental groups of compounds 1-7
Excerpt: as §1, §2, §3
900 one-day-old Lingnan yellow-feathered, fast-growing, and large-sized broilers were randomly divided into 18 groups (50 broilers/group). […] The broilers had free access to food. The weight gain and feed conversion of the experimental chickens (aged from 1 to 21 days) in each experimental group were recorded.

[2] = system: black carp (subyearlings); assay: Use of aspartic acid copper complex in aquaculture feeds (black carp breeding experiment); type: in vivo; details: 30 mg/kg in feed (as copper ions), 8 weeks
Description: Experimental fishes: The experimental fishes used were black carp (subyearlings), which were provided by the Dafeng fish nursery (Huizhou city, Guangdong province). Healthy and active fingerling black carps (uniform in size) were fed for 4 weeks in a big net cage (4×2×1.5 m^3) and then the formal breeding experiment was carried out. The experimental systems were small floating net cages (1.1×1.1×1.1 m^3 in size). Each small net cage was provided with an air-filling head, which allowed for continuous inflation of the cages for 24 h a day. The small net cages and the acclimatization net cage were all placed in a 3500 m^2 pond in the experimental field. […] During the trial, 480 black carps (fasted for 1 d) were randomly divided into 10 groups, with 4 replicates for each group and 12 fishes in each replicate. After weighing as a whole, the black carps were randomly placed into […] and fed with different experimental feeds.
Experimental feeds: The experimental feeds were formulated following the formula in Table 5. According to Table 6, different copper element supplements (calculated based on the copper ions) were added to the feeds in different experimental groups, respectively. The feed raw materials were subjected to ultrafine grinding and then granulated into floating expanded feeds (3 mm) using an expansion machine from Jiangsu Muyang Corporation. The demolding temperature was 130° C. 3% soybean oil was externally sprayed using an oil spraying device. The finished product was sealed and stored in a cool place for later use.
Experimental management: During the trial, the carps were manually fed in a restricted dose. The feeding dose was adjusted once a week, and the doses for all groups (based on the initial body weight) were completely consistent. The carps were fed twice a day (at 7:30 and 15:00). The experiment lasted for 8 weeks. During the trial, the water quality was regularly monitored, and throughout the breeding, the water temperature was kept at 26.88±3.08° C., DO>5.0 mg O L^−1, pH 7.8, ammonia nitrogen<0.50 mg NL^−1, and nitrite-nitrogen<0.05 mg N L^−1.
Parametric statistics: During the trial, the carps in each net cage were weighed as a whole one day after discontinuation of feeding, and the average weight gain (g) and feed-to-meat ratio were calculated. The calculation formulas are as follows:
Average weight gain (g)=Average final weight−Average initial weight; Feed-to-meat ratio=Food intake/Weight gain of fishes;

[3] = 50 mg/kg in feed (as copper ion)
[4] = L-aspartic acid 104 mg/kg in feed, no copper source
[5] = L-aspartic acid 105 mg/kg in feed, no copper source
[6] = L-aspartic acid group (105 mg/kg), versus control

| SMILES | Average weight gain (weaned piglets; [3]) | Feed-to-meat ratio (weaned piglets; [3]) | Survival rate (%) (weaned piglets; [3]) | Total feed consumption (weaned piglets; [3]) | Total weight gain (weaned piglets; [3]) | Relative weight gain rate (%) (weaned piglets; [3]) | Average feed consumption [1, 3] | Average weight gain [1, 3] | Feed-to-meat ratio [1, 3] | Survival rate (%) [1, 3] | Relative weight gain rate (%) [1, 3] | Physical characteristics of the experimental chickens [1] | Average weight gain [2] | Feed-to-meat ratio [2] | also measured |
| --- | --- | --- | --- | --- | --- | --- | --- | --- | --- | --- | --- | --- | --- | --- | --- |
| NC(CC(=O)[O-])C(=O)[O-].O.O.[Cu+2] (racemic) [Compound 5, [(Cu(II))(DL-Asp)(H2O)2]] | 11.83 kg | 2.184 | 100% | 258.35 kg | 118.3 kg | 108.5% | 917 g | 503 g | 1.824 | 100% | 106.1% | normal physical characteristics | 349 g | 1.433 |  |
| NC(CC(=O)[O-])C(=O)[O-].O.O.[Cu+2] (racemic) [Compound 7, [(Cu(II))(DL-Asp)(H2O)2]·(H2O)0.16] | 12.16 kg | 2.198 | 100% | 267.33 kg | 121.6 kg | 111.6% | 921 g | 515 g | 1.789 | 100% | 108.6% | normal physical characteristics | 350 g | 1.429 |  |
| N[C@@H](CC(=O)O)C(=O)O [L-aspartic acid, reference compound] |  |  |  |  |  |  |  |  |  |  |  |  |  |  | Average weight gain (weaned piglets; [4]): 11.04 kg; Feed-to-meat ratio (weaned piglets; [4]): 2.285; Survival rate (%) (weaned piglets; [4]): 100%; Total feed consumption (weaned piglets; [4]): 252.27 kg; Total weight gain (weaned piglets; [4]): 110.4 kg; Relative weight gain rate (%) (weaned piglets; [4]): 101.28%; Average feed consumption [1, 5]: 899 g; Average weight gain [1, 5]: 480 g; Feed-to-meat ratio [1, 5]: 1.873; Survival rate (%) [1, 5]: 100%; Relative weight gain rate (%) [1, 5]: 101.3%; Feed conversion decreased by [1, 6]: 0.32%; Relative weight gain rate increased by [1, 6]: 4.2% |
| N[C@@H](CC(=O)[O-])C(=O)[O-].O.O.[Cu+2] [Compound 3, [(Cu(II))(L-Asp)(H2O)2]·(H2O)0.62] | 11.92 kg | 2.114 | 100% | 251.97 kg | 119.2 kg | 109.4% | 919 g | 514 g | 1.788 | 100% | 108.4% | normal physical characteristics | 361 g | 1.385 | Improvement in the feed conversion of the experimental pigs compared with compound 4 (weaned piglets): about 2 fold |
| NC(CC(=O)[CH2][Cu][O]C(=O)CC(N)C(=O)O)C(=O)O (stereo not shown) [Compound 8, reference compound] |  |  | 100% |  |  |  |  |  |  | 100% |  |  |  |  | Production performance of the experimental pigs (weaned piglets; 50 mg/kg, versus control group): substantially close to that achieved in the control group |
| N[C@@H](CC(=O)[O-])C(=O)[O-].[Cu+2] (racemic) [Compound 6, [(Cu(II))(DL-Asp)]] | 12.08 kg | 2.173 | 100% | 262.46 kg | 120.8 kg | 110.8% | 912 g | 510 g | 1.789 | 100% | 107.6% | normal physical characteristics | 353 g | 1.416 |  |
| N[C@@H](CC(=O)[O-])C(=O)[O-].O.O.[Cu+2] [Compound 2, [(Cu(II))(L-Asp)(H2O)2]. (H2O)0.34] | 12.30 kg | 2.116 | 100% | 260.21 kg | 123.0 kg | 112.8% | 908 g | 509 g | 1.783 | 100% | 107.4% | normal physical characteristics | 368 g | 1.359 | Improvement in the feed conversion of the experimental pigs compared with compound 4 (weaned piglets): about 2 fold |
